Reference: patent US20240254083A1, “HETEROCYCLIC TRPML1 AGONISTS AND USES THEREOF” (Libra Therapeutics, Inc., priority 2021, published 2024)

These compounds were tested against T1, hTRPML1 (Homo sapiens, UniProt Q9GZU1) (assay: Cellular TRPML1 assay (FLIPR, GCaMP6f calcium read-out)). Details: HEK T-REx/GCaMP6f/TRPML1 cells, FLIPR TETRA, kinetic response over 300 seconds; read-out: hTRPML1 FLIPR pEC50 (converted).
T1 construct: expressed in transfected cells
Type: cell-based
Protocol: Buffers and reagents • PBS (D-PBS without calcium and magnesium; EuroClone) • Trypsin (Trypsin 0.05%, EDTA 0.02% in PBS; EuroClone) • DMSO (Sigma) • Ca^2+ free Tyrode's buffer: in-house solution (130 mM NaCl, 5 mM KCl, 1 mM MgCl2, 5 mM NaHCO3, 20 mM HEPES in water at pH 7.4; sterile filtered). • Opti-MEM (Gibco) • Agonist: ML-SA1 (Sigma); stock: 60 mM in DMSO, stored at −20° C. • Blocker: ML-SI3 (in house synthesis); stock: 20 mM in DMSO, stored at −20° C.
Cell line • The final clone for the TRPML1 assay is HEK T-REx/GCaMP6f/TRPML1. • GCaMP6f is a genetically encoded calcium indicator that is stably expressed in this cell line and used as a fluorescent read-out.
Cells are seeded at 15000 cells/well either in 25 µl/well of growth medium or in 20 μl/well of Optimem+0.5% FBS without selection antibiotics. Twenty-four hours later, cells are assayed for the response to various compounds using the Ca^2+ sensitive GCaMP6f protein stably expressed in the cells as readout.
The experiment is performed in a 384-well format according to the following procedures for either Ca^2+ free or Optimem conditions: • Ca^2+ free condition (in absence of extracellular Ca^2+): • 24 h after seeding, pre-incubate the cells at room temperature for about 10′. • Then remove the culture medium and replace it with 20 μL of Ca^2+ free Tyrode's buffer. • Start the experiment at the FLIPR^TETRA by injecting 10 μL/w of 3× concentrated test compounds and controls in Ca^2+ free Tyrode's buffer. Monitor the kinetic response over a period of 300 seconds. • Final DMSO concentration: 0.5% • Optimem condition (in presence of extracellular Ca^2+): • 24 h after seeding, pre-incubate the cells at room temperature for about 10′. • Start the experiment at the FLIPR^TETRA by injecting 10 μL/w of 3× concentrated test compounds and controls in Ca^2+ free Tyrode's buffer. Monitor the kinetic response over a period of 300 seconds. • Final DMSO concentration: 0.5%
Data from FLIPR^TETRA measurements are analyzed with the Genedata Screener© software.

T1 sequence (Q9GZU1 whole entry): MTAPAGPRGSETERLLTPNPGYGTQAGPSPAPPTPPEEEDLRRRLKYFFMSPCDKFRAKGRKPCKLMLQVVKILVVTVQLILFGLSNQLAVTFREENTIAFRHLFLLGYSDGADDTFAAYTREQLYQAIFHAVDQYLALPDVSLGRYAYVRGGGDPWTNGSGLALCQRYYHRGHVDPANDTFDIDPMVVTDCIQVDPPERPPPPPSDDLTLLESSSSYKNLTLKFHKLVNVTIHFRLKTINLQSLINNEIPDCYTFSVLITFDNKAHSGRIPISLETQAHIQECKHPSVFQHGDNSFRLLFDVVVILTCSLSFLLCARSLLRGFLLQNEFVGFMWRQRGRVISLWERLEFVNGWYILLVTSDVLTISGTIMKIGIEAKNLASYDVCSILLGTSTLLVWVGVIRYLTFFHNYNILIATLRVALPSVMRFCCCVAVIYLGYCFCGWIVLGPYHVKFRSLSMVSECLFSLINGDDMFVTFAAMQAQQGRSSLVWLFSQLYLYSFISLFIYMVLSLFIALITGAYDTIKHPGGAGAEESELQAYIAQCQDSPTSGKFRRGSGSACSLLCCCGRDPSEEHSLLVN

Row | Compound | EC50 [µM]
1 | CN(C)S(=O)(=O)c1ccc(S(=O)(=O)Nc2ccccc2N2CCC[C@H](OCc3ccccc3)C2)cc1 (single isomer, unassigned) [Example 26] | 1 to 3.16
2 | CN(C)S(=O)(=O)c1ccc(S(=O)(=O)Nc2ccccc2N2CCC[C@H](Oc3ccccc3)C2)cc1 (single isomer, unassigned) [Example 29] | > 3.16
3 | CN(C)S(=O)(=O)c1ccc(S(=O)(=O)Nc2ccccc2N2CCC[C@@H](Oc3ccccc3)C2)cc1 (single isomer, unassigned) [Example 30] | 1 to 3.16
4 | CN(C)S(=O)(=O)c1ccc(S(=O)(=O)Nc2ccccc2N2CCC[C@H](COc3ccccc3)C2)cc1 (single isomer, unassigned) [Example 35] | 1 to 3.16
5 | CN(C)S(=O)(=O)c1ccc(S(=O)(=O)Nc2ccccc2N2CCC[C@@H](COc3ccccc3)C2)cc1 (single isomer, unassigned) [Example 36] | 1 to 3.16
6 | CCCN(C(=O)c1ccc(S(=O)(=O)N(C)C)cc1)c1ccccc1N1CCC(Oc2ccccc2)CC1 [Example 4, 4-(N,N-dimethylsulfamoyl)-N-(2-(4-phenoxypiperidin-1-yl)phenyl)-N-propylbenzamide] | 1 to 3.16
7 | CN(C)S(=O)(=O)c1ccc(C(=O)N(c2ccccc2N2CCC(Oc3ccccc3)CC2)C2CC2)cc1 [Example 5, N-cyclopropyl-4-(N,N-dimethylsulfamoyl)-N-(2-(4-phenoxypiperidin-1-yl)phenyl)benzamide] | > 3.16
8 | CN(C(=O)c1ccc(S(=O)(=O)N(C)C)cc1)c1cccc(F)c1N1CCC(Oc2ccccn2)CC1 [Example 9, 4-(N,N-dimethylsulfamoyl)-N-(3-fluoro-2-(4-(pyridin-2-yloxy)piperidin-1-yl)phenyl)-N-methylbenzamide] | > 3.16
9 | CC(C)N(C(=O)c1ccc(S(=O)(=O)N(C)C)cc1)c1cccc(F)c1N1CCC(Oc2ccccn2)CC1 [Example 11, 4-(N,N-dimethylsulfamoyl)-N-(3-fluoro-2-(4-(pyridin-2-yloxy)piperidin-1-yl)phenyl)-N-isopropylbenzamide] | > 3.16
10 | CN(C)S(=O)(=O)c1ccc(C(=O)N(c2cccc(F)c2N2CCC(Oc3ccccn3)CC2)C2CCC2)cc1 [Example 12, N-cyclobutyl-4-(N,N-dimethylsulfamoyl)-N-(3-fluoro-2-(4-(pyridin-2-yloxy)piperidin-1-yl)phenyl)benzamide] | > 3.16
11 | Cc1ccc(N2CCC(Oc3ccccn3)CC2)c(NS(=O)(=O)c2ccc(S(=O)(=O)N(C)C)cc2)c1 [Example 14, N^1,N^1-dimethyl-N^4-(5-methyl-2-(4-(pyridin-2-yloxy)piperidin-1-yl)phenyl)benzene-1,4-disulfonamide] | < 1
12 | Cc1ccc(C)c(S(=O)(=O)Nc2ccccc2N2CCN(C(=O)OC(C)(C)C)CC2)c1 [Example 20, tert-butyl 4-(2-((2,5-dimethylphenyl)sulfonamido)phenyl)piperazine-1-carboxylate] | > 3.16
13 | CN(C)S(=O)(=O)c1ccc(S(=O)(=O)Nc2cccc(F)c2N2CCC(C)(c3ccccc3)CC2)cc1 [Example 37, N^1-(3-fluoro-2-(4-methyl-4-phenylpiperidin-1-yl)phenyl)-N^4,N^4-dimethylbenzene-1,4 disulfonamide] | < 1
14 | Cc1ccc(S(=O)(=O)Nc2ccccc2N2CCN(C(=O)Oc3ccccc3)CC2)cc1C [Example 39, phenyl 4-(2-((3,4-dimethylphenyl)sulfonamido)phenyl) piperazine-1-carboxylate] | > 3.16
15 | Cc1ccc(S(=O)(=O)Nc2ccccc2N2CCN(C(=O)CC(C)(C)C)CC2)cc1C [Example 41, N-(2-(4-(3,3-dimethylbutanoyl)piperazin-1-yl)phenyl)-3,4-dimethylbenzenesulfonamide] | > 3.16
16 | CC(C)(C)CC(=O)N1CCN(c2ccccc2NS(=O)(=O)c2ccc(C(F)(F)F)cc2)CC1 [Example 42, N-(2-(4-(3,3-dimethylbutanoyl)piperazin-1-yl)phenyl)-4-(trifluoromethyl)benzenesulfonamide] | > 3.16
17 | CN(C)S(=O)(=O)c1ccc(S(=O)(=O)Nc2cccc(F)c2N2CCC(Oc3ccc(C(F)(F)F)cn3)CC2)cc1 [Example 43, N^1-(3-fluoro-2-(4-((5-(trifluoromethyl)pyridin-2-yl)oxy)piperidin-1-yl)phenyl)-N^4,N^4-dimethylbenzene-1,4-disulfonamide] | < 1
18 | CN(C)S(=O)(=O)c1ccc(S(=O)(=O)Nc2cccc(F)c2N2CCC(Oc3ncc(Cl)cc3F)CC2)cc1 [Example 45, N^1-(2-(4-((5-chloro-3-fluoropyridin-2-yl)oxy)piperidin-1-yl)-3-fluorophenyl)-N^4,N^4-dimethylbenzene-1,4-disulfonamide] | < 1

Second part, the compound after the results:

Row | EC50 [µM] | Compound
19 | 1 to 3.16 | CN(C)S(=O)(=O)c1ccc(S(=O)(=O)Nc2ccccc2N2CCC[C@@H](OCc3ccccc3)C2)cc1 (single isomer, unassigned) [Example 27]
20 | > 3.16 | COCCN(C(=O)c1ccc(S(=O)(=O)N(C)C)cc1)c1ccccc1N1CCC(Oc2ccccc2)CC1 [Example 3, 4-(N,N-dimethylsulfamoyl)-N-(2-methoxyethyl)-N-(2-(4-phenoxypiperidin-1-yl)phenyl)benzamide]
21 | 1 to 3.16 | CN(C)S(=O)(=O)c1ccc(S(=O)(=O)Nc2cccc(Cl)c2N2CCC(Oc3ccccn3)CC2)cc1 [Example 7, N^1-(3-chloro-2-(4-(pyridin-2-yloxy)piperidin-1-yl)phenyl)-N^4,N^4-dimethylbenzene-1,4-disulfonamide]
22 | 1 to 3.16 | CN(C)S(=O)(=O)c1ccc(S(=O)(=O)Nc2cc(Cl)ccc2N2CCC(Oc3ccccn3)CC2)cc1 [Example 13, N^1-(5-chloro-2-(4-(pyridin-2-yloxy)piperidin-1-yl)phenyl)-N^4,N^4-dimethylbenzene-1,4-disulfonamide]
23 | 1 to 3.16 | CCS(=O)(=O)c1ccc(S(=O)(=O)Nc2cccc(F)c2N2CCC(Oc3ccccn3)CC2)cc1 [Example 15, 4-(ethylsulfonyl)-N-(3-fluoro-2-(4-(pyridin-2-yloxy)piperidin-1-yl)phenyl)benzenesulfonamide]
24 | 1 to 3.16 | Cc1ccc(N2CCC(Oc3ccccn3)CC2)c(N(C(=O)c2ccc(S(=O)(=O)N(C)C)cc2)C2CCCC2)c1 [Example 16, N-cyclopentyl-4-(N,N-dimethylsulfamoyl)-N-(5-methyl-2-(4-(pyridin-2-yloxy)piperidin-1-yl)phenyl)benzamide]
25 | > 3.16 | Cc1ccc(S(=O)(=O)Nc2ccccc2N2CCN(C(=O)OC(C)(C)C)CC2)c(F)c1 [Example 18, tert-butyl 4-(2-((2-fluoro-4-methylphenyl)sulfonamido)phenyl)piperazine-1-carboxylate]
26 | > 3.16 | CC(C)(C)OC(=O)N1CCN(c2ccccc2NS(=O)(=O)c2ccc(OC(F)(F)F)cc2)CC1 [Example 21, tert-butyl 4-(2-((4-(trifluoromethoxy)phenyl)sulfonamido)phenyl) piperazine-1-carboxylate]
27 | 1 to 3.16 | CN(C)S(=O)(=O)c1ccc(S(=O)(=O)Nc2ccccc2N2CCCCCCC2)cc1 [Example 24, N1-(2-(azocan-1-yl)phenyl)-N4,N4-dimethylbenzene-1,4-disulfonamide]
28 | < 1 | CN(C)S(=O)(=O)c1ccc(S(=O)(=O)Nc2cccc(F)c2N2CCC(Oc3ccc(Cl)cn3)CC2)cc1 [Example 44, N^1-(2-(4-((5-chloropyridin-2-yl)oxy)piperidin-1-yl)-3-fluorophenyl)-N^4,N^4-dimethylbenzene-1,4-disulfonamide]
